Assay results reported in patent publication US9943569B2, “Method for preventing or reducing postoperative pulmonary complications” (OSAKA UNIVERSITY, priority 2015, dated 2018).

Assays:
Assay type in all cases: in vivo, human
[1] = Plasma ghrelin concentration (enzyme immunoassay), randomized placebo-controlled phase II study
From the text: Forty patients with primary esophageal cancer who underwent esophagectomy were selected to participate in a randomized, placebo-controlled phase II study. The patients were selected based on the following eligibility criteria: (1) thoracic esophageal cancer treated by performing radical esophagectomy with gastric tube reconstruction; (2) age 20 to 75 years; (3) adequate functioning of major organs; (4) no other active malignancies; and (5) provision of written informed consent. The following exclusions criteria were used: (1) preoperative diagnosis of esophageal cancer invasion to the aorta or trachea and other organs; (2) patients with multiple cancer; (3) severe respiratory problems, such as emphysema; (4) patients with prior ischemic heart disease; (5) liver cirrhosis or active hepatitis; (6) renal failure requiring dialysis treatment; (7) poorly controlled diabetes mellitus or disease requiring insulin treatment; (8) consecutive use of steroids; and (9) mental disorder. The patients were randomly divided into a ghrelin group and a placebo group at a 1:1 ratio. The approach for thoracic manipulation (i.e., open or thoracoscopic surgery) was used as the only stratification factor. Group allocation was performed before the initiation of surgery. The study was performed in a double-blind manner, and an independent researcher assessed outcomes.
(§1) The primary endpoint of this study was SIRS duration. The secondary endpoints were postoperative complications, serum C-reactive protein (CRP) and IL-6 levels, time required to attain a positive nitrogen balance, and changes in body weight and body composition. Postoperative complications were defined as adverse events caused by surgery. Patients received an intravenous continuous infusion of ghrelin (0.5 μg/kg/h) or placebo (pure saline) for 5 days postoperatively. Ghrelin was diluted to a final volume of 48 mL with saline, and the solution was administered at a rate of 2 mL/h by using an infusion pump through a central venous catheter inserted into the right subclavian vein. The same amount of ghrelin was administered via intravenous infusion during the 5 days of treatment; the dose was calculated on the basis of body weight on the day before surgery. Patients in the placebo group received the corresponding infusion containing pure saline using same procedure.
(§2) Blood sampling was performed at the following 7 time points: before surgery; 2 hours after initiation of surgery (during thoracotomy); 4 hours after initiation of surgery (during laparotomy); and on PODs 1, 3, 7, and 10. Complete blood count was performed every day for at least 10 PODs. If the leukocyte count was not within the normal range on POD10, complete blood counts were performed daily until it was within the normal range for 3 consecutive days. SIRS was diagnosed according to the criteria proposed by the American College of Chest Physicians/Society of Critical Care Medicine Consensus Conference^32 and when 2 or more of the following criteria were present: (1) body temperature less than 36° C. or more than 38° C.; (2) heart rate more than 90 beats per minute; (3) tachypnea with more than 20 breaths per minute or an arterial partial pressure of carbon dioxide less than 32 mm Hg; and (4) white blood cell count less than 4000 cells/mm^3, >12,000 cells/mm^3, or an immature (band) form more than 10%. Postoperative complications were evaluated according to the Clavien-Dindo classification.^33 Grade I required no treatment, grade II required medical therapy, grade Ma required interventions but not general anesthesia, grade Mb required general anesthesia, grade IV represented life-threatening states that required intensive care, and grade V represented death.
Sampled blood was immediately transferred into a chilled glass tube containing disodium ethylenediaminetetraacetic acid for plasma sampling or a separating agent for serum sampling, and the samples were then centrifuged at 4° C. […]

C-reactive protein (CRP) = assay: Postoperative change in serum CRP; details: n=20
Procedure: as §1, §2

interleukin-6 (IL-6) = assay: Postoperative change in serum IL-6 (enzyme immunoassay); details: n=20
Procedure: as §1, §2
(§3) Sampled blood was immediately transferred into a chilled glass tube containing disodium ethylenediaminetetraacetic acid for plasma sampling or a separating agent for serum sampling, and the samples were then centrifuged at 4° C. Plasma samples were mixed with a 10% volume of 1 N HCl and stored at −80° C. Serum samples were directly stored at −80° C. Sandwich-type enzyme immunoassay kits were used to measure levels of plasma active ghrelin, des-acyl ghrelin, and serum IL-6 according to the manufacturers' protocols (for ghrelin: Mitsubishi Kagaku Iatron, Inc, Tokyo, Japan; for IL-6: R&D Systems, Minneapolis, Minn.). Total plasma ghrelin levels were calculated as the active ghrelin level plus the des-acyl ghrelin level.^34 An Access 2 kit, a chemiluminescent enzyme immunoassay (Beckman Coulter, Inc, Brea, Calif.), was used to measure serum GH levels.

[2] = system: patients undergoing esophagectomy; assay: Laboratory tests, nutrition status and hormone assays, preoperative and POD7
Procedure: as §1, §2, §3

[3] = system: patients undergoing esophagectomy; assay: Time required to attain positive nitrogen balance; details: ghrelin 0.5 μg/kg/h continuous i.v. for 5 days, n=20
Procedure: as §1

## CCCCCCCC(=O)OC[C@H](NC(=O)[C@H](CO)NC(=O)CN)C(=O)N[C@@H](Cc1ccccc1)C(=O)N[C@@H](CC(C)C)C(=O)N[C@@H](CO)C(=O)N1CCC[C@H]1C(=O)N[C@@H](CCC(=O)O)C(=O)N[C@@H](Cc1cnc[nH]1)C(=O)N[C@@H](CCC(N)=O)C(=O)N[C@@H](CCCNC(=N)N)C(=O)N[C@H](C(=O)N[C@@H](CCC(N)=O)C(=O)N[C@@H](CCC(N)=O)C(=O)N[C@@H](CCCNC(=N)N)C(=O)N[C@@H](CCCCN)C(=O)N[C@@H](CCC(=O)O)C(=O)N[C@@H](CO)C(=O)N[C@@H](CCCCN)C(=O)N[C@@H](CCCCN)C(=O)N1CCC[C@H]1C(=O)N1CCC[C@H]1C(=O)N[C@@H](C)C(=O)N[C@@H](CCCCN)C(=O)N[C@@H](CC(C)C)C(=O)N[C@@H](CCC(N)=O)C(=O)N1CCC[C@H]1C(=O)N[C@@H](CCCNC(=N)N)C(=O)O)C(C)C [ghrelin]
[1]; Postoperative (POD7)
  Total ghrelin: 60.2 ± 34.1 imol/mL
[1]; Preoperative (baseline)
  Total ghrelin: 106.6 ± 76.8 imol/mL
[1]; human, plasma, iv, 0.5 ug/kg/h, 2 hours after the start of injection, 0.5 μg/kg/h continuous i.v. infusion
  level at time molar at 2 h: 0.743 ± 0.191 nM
[1]; human, plasma, iv, 0.5 ug/kg/h, 4 hours after the start of injection, 0.5 μg/kg/h continuous i.v. infusion
  level at time molar at 4 h: 0.711 ± 0.146 nM
[1]; human, plasma, iv, 0.5 ug/kg/h, POD1, during infusion 0.5 μg/kg/h
  level at time molar at 1 postoperative day: 0.749 ± 0.143 nM
[1]; human, plasma, iv, 0.5 ug/kg/h, POD3, during infusion 0.5 μg/kg/h
  level at time molar at 3 postoperative day: 0.737 ± 0.199 nM
[1]; human, plasma, iv, 0.5 ug/kg/h, POD7, after administration of ghrelin
  level at time molar at 7 postoperative day: 0.0602 ± 0.0341 nM
[1]; human, plasma, iv, 0.5 ug/kg/h, POD10, after administration of ghrelin
  level at time molar at 10 postoperative day: 0.063 ± 0.031 nM
[1]; human, plasma, iv, 0.5 ug/kg/h, before ghrelin administration (baseline), ghrelin group n=20
  level at time molar: 0.107 ± 0.0768 nM
C-reactive protein (CRP); POD1
  Serum CRP: 6.6 ± 2.0 mg/dL
C-reactive protein (CRP); POD3
  Serum CRP: 11.1 ± 6.6 mg/dL
C-reactive protein (CRP); POD3, listed as Ghrelin
  Serum CRP: 11.1 ± 6.6 mg/dL
C-reactive protein (CRP); POD7
  Serum CRP: 4.3 ± 3.6 mg/dL
C-reactive protein (CRP); POD7, listed as Ghrelin
  Serum CRP: 4.3 ± 3.6 mg/dL
C-reactive protein (CRP); POD10
  Serum CRP: 2.1 ± 2.3 mg/dL
C-reactive protein (CRP); POD10, listed as Ghrelin
  Serum CRP: 2.1 ± 2.3 mg/dL
C-reactive protein (CRP); Preoperative (baseline)
  Serum CRP: 0.3 ± 0.5 mg/dL
interleukin-6 (IL-6); POD1
  Serum IL-6: 95.2 ± 131.0 pg/mL
interleukin-6 (IL-6); POD3
  Serum IL-6: 43.1 ± 47.1 pg/mL
interleukin-6 (IL-6); POD3, listed as Ghrelin
  Serum IL-6: 43.1 ± 47.1 pg/mL
interleukin-6 (IL-6); POD7
  Serum IL-6: 15.3 ± 11.3 pg/mL
interleukin-6 (IL-6); POD10
  Serum IL-6: 14.2 ± 17.9 pg/mL
interleukin-6 (IL-6); Preoperative (baseline)
  Serum IL-6: 4.3 ± 4.8 pg/mL
[2]; Postoperative (POD7)
  Alanine aminotransferase: 40.6 ± 24.6 IU/L
  Albumin: 2.99 ± 0.45 g/dL
  Asparate aminotransferase: 34.0 ± 15.9 IU/L
  Blood urea nitrogen: 19.3 ± 6.8 mg/dL
  Choline esterase: 154.1 ± 50.7 IU/L
  Creatinine: 0.77 ± 0.19
  Growth hormone: 1.08 ± 1.16 ng/mL
  Hemoglobin: 10.1 ± 1.3 g/dL
  Leukocytes: 9068 ± 2633 /mm
  Lymphocytes: 1380 ± 495 /mm
  Retinol binding protein: 3.63 ± 1.56 mg/dL
  Total bilirubin: 1.25 ± 0.80 mg/dL
  Total protein: 5.66 ± 0.70 g/dL
  Transferrin: 146.4 ± 35.3 mg/dL
  Transthyretin: 20.1 ± 6.7 mg/dL
[2]; Preoperative (baseline)
  Alanine aminotransferase: 18.3 ± 14.1 IU/L
  Albumin: 3.78 ± 0.50 g/dL
  Asparate aminotransferase: 20.2 ± 7.2 IU/L
  Blood urea nitrogen: 15.1 ± 4.7 mg/dL
  Choline esterase: 263.5 ± 83.8 IU/L
  Creatinine: 0.88 ± 0.21
  Growth hormone: 0.51 ± 0.54 ng/mL
  Hemoglobin: 11.3 ± 1.5 g/dL
  Leukocytes: 5472 ± 1970 /mm
  Lymphocytes: 1644 ± 585 /mm
  Retinol binding protein: 4.86 ± 1.71 mg/dL
  Total bilirubin: 0.58 ± 0.20 mg/dL
  Total protein: 6.44 ± 0.59 g/dL
  Transferrin: 198.1 ± 30.8 mg/dL
  Transthyretin: 28.8 ± 9.1 mg/dL
[3]
  time required to attain positive nitrogen balance: 2.6 ± 1.6 days
